Results from patent US9920300B2, “Induction of germ cells from pluripotent cells” (The Board of Trustees of the Leland Stanford Junior …, priority 2009, dated 2018).

Tests used:
[1] = tested on: VASA:GFP+ and VASA:GFP− cells; experiment: Caspase 3/7 apoptosis assay in FACS-sorted cells; format: cell-based, human; conditions: 1 μM DMBA-DHD
Method: Single cell suspensions were prepared by incubating differentiated hESCs in Collagenase Type IV (1 mg/ml) for ten minutes, followed by ten minutes in TrypLE (Invitrogen). Cell pellet was resuspended in 0.5 ml differentiated media and passed through a 40 μm strainer. Cell suspensions were then subjected to FACS analysis with BD FACSAria system (BD). Cells were sorted for either VASA:GFP+ or VASA:GFP−. 1000 cells of each group were collected in 100 μl PBS and mixed with 100 μl of Caspase-Glo 3/7 reagent according to manufacturer protocol (Promega). Luminescence was measured after 1 hour of incubation at room temperature with Fluostar Optima (BMG).

[2] = tested on: hESCs (H9) differentiating to germ cells; experiment: qPCR gene expression in hESCs differentiated with BMPs in the presence of PAHs; format: cell-based, human
Method: (§1) A federally approved hESC line (H9, XX) was maintained and differentiated as previously described (see methods of Kee, K., et al. (2006) Stem Cells & Differentiation 15: 831-837, the disclosure of which is incorporated herein). Briefly, adherent differentiation began upon the addition of differentiation media containing 20% FBS (Hyclone) and supplemented with Bone Morphogenetic Proteins (BMPs) -4, -7, and -8b (R&D) reconstituted in 4 mM HCl/0.1% BSA and used at 50 ng/ml. DMBA (Sigma), ANF (Sigma) and DMBA-DHD(MRI) were dissolved in DMSO at a 1:1000 dilution before adding to the media to the indicated final concentrations.
Total RNA was extracted using the RNeasy kit (Qiagen) and cDNA prepared with SuperScriptIII (Invitrogen) according to the manufacturer's protocols using 1 μg RNA. The cDNA was subjected to a pre-amplification using 1.25 μl out of 20 μl total cDNA, 1 μl Platinum Taq (Invitrogen), 5 μl CellsDirect 2× Reaction Buffer and 2.5 μl 0.2× Taqman (Applied Biosystem) probe mix. PCR cycle program for pre-amplification is: 95° C., 10 minutes; 95° C., 15 seconds and 60° C., 4 minutes for 14 cycles. Assays and samples are prepared according to the Fluidigm protocol and run on a 48×48 chip. BioMark (Fluidigm) program was used to obtain delta Ct value before imported into Excel file sheet to calculate delta-delta Ct value=2^(CtGene−CtHousekeeping genes). The delta-delta Ct value is then normalized to the control of each experiment to obtain the final normalized expression level. All delta-delta Ct values were calculated using four housekeeping genes (GAPDH, CTNNB1, ACTS, CENTRIN) except in experiment in FIG. 35, which only used GAPDH as housekeeping gene in a regular qPCR reaction in 7300 Real Time PCR System (Applied Biosystems).

[3] = tested on: VASA:GFP+ PGCs from hESCs; experiment: VASA:GFP reporter FACS of hESCs with DMBA-DHD and shAHR (Example 3); format: cell-based, human
Method: as §1
shRNA was used to target AHR by the BLOCK-IT™ Inducible H1 Lentiviral RNAi System (Invitrogen). Double stranded oligos were generated, ligated into the pENTR vector and transfected into 293FT cells for initial screening. After 24 hours, RNA was harvested using the RNeasy kit and cDNA generated using SuperScriptIII with 1 μg total RNA input. The destination lentiviral vector was generated by recombining the pENTR vector with the pLenti4/BLOCK-it-DEST vector via the Gateway technology according to the manufacturer's protocol. Lentiviral supernatant carrying the pLenti4/BLOCK-it-DEST-shAHR vector was generated by co-transfection with 10 μg of each vector with 10 μg Vsvg and 15 μg Δ8.9 into 293FT cells grow on T175 plates. Supernatant was harvested after three days and either used immediately for transduction of hESCs or frozen at −80° C. until further usage. hESCs prepared for transduction were plated to 50% confluency on matrigel coated plates. Polybrene was added to the lentivirus supernatant for a final concentration of 8 μg/ml. […]
Single cell suspensions were prepared by incubating differentiated hESCs in Collagenase Type IV (1 mg/ml) for ten minutes, followed by ten minutes in TrypLE (Invitrogen). […] Luminescence was measured after 1 hour of incubation at room temperature with Fluostar Optima (BMG).

mouse fetal germ cells = mouse fetal germ cells incubated with PAHs; cited from earlier work
DAZL = experiment: shRNA silencing of DAZL-V5 / DAZL:GFP cotransfected in 293T cells; format: cell-based, human
Method: (§2) To collect the adherently differentiated cells, cells were washed with 3 ml cold PBS without Ca^2+ and Mg^2+, then scraped from the plate in 1 ml PBS plus 2× protease inhibitors (Complete Mini, Roche) and transferred immediately to a 1.5-ml tube on ice. The PBS cell suspension was then spun at 5,000 r.p.m. in a microcentrifuge for 3 min and the supernatant was discarded. The cell pellet was resuspended with 200 ul RIPA buffer (50 mM Tris, 150 mM NaCl, 0.5% sodium deoxycholate, 1% NP-40, 0.1% SDS, pH 8) plus 2× protease inhibitors (Complete Mini, Roche). The cell pellet suspension was pipetted rigorously at least 10 times, then vortexed for 30 sec. The suspension was again spun down for 3 min at the same speed. The supernatant was measured for protein concentration and denatured at a 1:1 ratio with 2× Laemmli buffer at 95° C. for 5 min, then loaded onto either a 10% or 12% SDS-PAGE gel. The SDS-PAGE gels were run at 150 V for 1 h and transferred to a PVDF membrane for 1 h at 100 V in CAPS buffer (10 mM CAPS, 10% methanol, pH 11). Transferred blots were blocked in 5% non-fat milk for 1 h at room temperature. […]

DAZL and VASA = experiment: Western blot of DAZL and VASA in human ES cells after silencing/overexpression; format: cell-based; conditions: human ES cells differentiated 14 days with BMPs
Method: as §2

DAZ = experiment: shRNA silencing of DAZ2-V5 and DAZ1-4 in 293T/293FT cells (Western); format: cell-based, human; conditions: for Protein level of DAZ2-V5: cotransfected
Method: All shRNAs targeting human DAZL, DAZ and BOULE were constructed using the Block-iT inducible H1 lentiviral system (Invitrogen). All shRNAs were first introduced into pENTR/H1/TO vectors and transferred into pLenti4/BLOCK-iT-DEST destination vectors (see below for sequence information). When shRNA was tested in 293FT cells for its efficacy of silencing, transient transfection without selection was carried out and cell lysate was collected after 24 h. After specific shRNA was chosen, viral supernatant was prepared as described for pLVGV. Subsequently, the viral supernatant was used to transduce human ES cells on matrigel as described above, except with zeocin selection (2 μg/ml) for 3 days for stable integration of the shRNA vector into human ES cells. Overexpression vectors were constructed by inserting the EF1μ, promoter, and DAZL, DAZ2 or BOULE cDNA into the p2k7bias vectors, selected with blasticidin (2 μg ml^−1) in culture for 3 days to ensure stable integration and subjected for each differentiation experiment. shRNA sequences were:
cDNA clones of DAZ1-4 (NCBI accession numbers: DAZ1, BC11492; DAZ2, NM_020363; DAZ3, BC113005; DAZ4, BC047480) were obtained from ATCC, PCR amplified, cloned into pENTR-D-TOPO vector, and subsequently cloned into pLenti4/TO/V5-DEST (Invitrogen). […] Co-transfection of the overexpression vector and shDAZ4 at the ratio of 1:1 and 1:2 into 293FT cells was carried out and all the lysates were collected after 24 h and loaded equally onto 10% SDS-PAGE gel.

[4] = tested on: VASA-GFP+ population of human ES cells (H9, HSF1); experiment: VASA-GFP reporter FACS of differentiated human ES cells (Example 1); format: cell-based; conditions: XX line (H9), 14 days
Method: 2.5 kb of human VASA upstream of the first codon was cloned into pENTR 5′-TOPO. EGFP was fused 1 kb downstream of the last codon of human VASA, and cloned into pENTR/D-TOPO. Cloned plasmids were recombined (Suter, D. M. et al. (2006) Stem Cells 24, 615-623) to create pLVGV. Lentiviral supernatant was produced, human ES cells were transduced overnight on matrigel in conditioned medium and subsequently selected with geneticin ([…]) for 7 days. Selected human ES cells were differentiated for the times indicated and harvested by brief treatment with collagenase IV and then TrypLEExpress (Invitrogen). The cell suspension was prepared in differentiation medium for FACS with a MoFlow or BD cell sorter.
Four human ES cell lines were used in this study: HSF1 (XY), HSF6 (XX), H1 (XY) and H9 (XX). Undifferentiated cultures of human ES cells were maintained on irradiated MEFs as previously described in Kee, K. et al (2006) Stem Cells Dev. 15: 831-837. Briefly, all cultures were grown at 37° C. with 5% CO2 in knockout serum replacer (KSR) plus bFGF medium (knockout DMEM, supplemented with 20% knockout serum replacer, 1 mM L-glutamine, 0.1 mM nonessential amino acids, 0.1 mM 2-mercaptoethanol, and 4 ng ml^−1 recombinant human bFGF (bFGF, R&D systems)). […]

Cc1c2ccccc2c(C)c2c3c(ccc12)C(O)C(O)C=C3 (centres unmarked) [DMBA-DHD, DMBA-3,4-dihydrodiol]
Apoptosis activity (Caspase 3/7) ([1]; VASA:GFP+ cells): significantly increased
Apoptosis activity (Caspase 3/7) ([1]; VASA:GFP− cells): not in the VASA:GFP− cells
Potency relative to DMBA (decrease in germ cell specific gene expression) ([2]; 0.1 μM DMBA-DHD comparable to 1 μM DMBA, 1 μM DMBA-DHD more potent than 10 μM DMBA): at least one log
Expression of AFP and CDX2 ([2]; hESCs differentiated with BMPs): not reproducibly reduced
Expression of somatic markers KDR and NES ([2]; hESCs differentiated with BMPs): did not significantly alter
Increase of BAX expression ([2]; hESCs differentiated with BMPs, vs DMSO control): 20 fold
Number of PGCs out of 20,000 differentiated hESCs ([3]; hESCs carrying shLacZ, 1 μM DMBA-DHD, control 908): ~626
Percentage of VASA:GFP+ PGCs ([3]; hESCs carrying shLacZ, 14 days BMP induction, 1 μM DMBA-DHD, untreated control 4.5%): 3.1%
Reduction in human PGCs ([3]; in the presence of DMBA-DHD): less than two-fold

O=c1cc(-c2ccccc2)oc2c1ccc1ccccc12 [ANF, α-napthoflavone]
Rescue of KDR and NES expression ([2]; ANF added with DMBA-DHD): no rescue
Expression of germ cell markers VASA, DAZL and PRDM1 ([2]; ANF added with DMBA-DHD, relative to DMBA-DHD addition alone): increased
BAX expression ([2]; ANF added with DMBA-DHD, relative to DMBA-DHD alone): decreased
Fetal germ cell toxicity of PAHs (mouse fetal germ cells): could be prevented

shDAZL2: shRNA 5′-GCATATCCTACTTACCCAAAT-3′, SEQ ID NO: 25
Silencing of DAZL:GFP fusion protein (DAZL): most effective
Expression of DAZL and VASA (DAZL and VASA): significantly reduced

shDAZ3: shRNA 5′-GCCACGTCCTTTGGTAGTTAA-3′, SEQ ID NO: 33
Protein level of DAZ2-V5 (DAZ): significantly decreased

shDAZ4: shRNA 5′-GCATTTCCTGCTTATCCAAAT-3′, SEQ ID NO: 34
Silencing of DAZ1-4 proteins (DAZ; 293FT cells): all four DAZ proteins were silenced
Protein level of DAZ2-V5 (DAZ): significantly decreased

shDAZ5: shRNA 5′-GCATTTCCTGCTTATCCAAGT-3′, SEQ ID NO: 35
Protein level of DAZ2-V5 (DAZ): significantly decreased

shDAZ1: shRNA 5′-GCAAATCCTGAGACTCCAAAC-3′, SEQ ID NO: 31
Protein level of DAZ2-V5 (DAZ): significantly decreased

shDAZL4: shRNA 5′-GCAGAAGATAGTAGAATCACA-3′, SEQ ID NO: 27
Silencing of DAZL:GFP fusion protein (DAZL): most effective silencer for DAZL
Expression of DAZL and VASA (DAZL and VASA): significantly reduced
VASA-GFP+ population [4]: reduced
